Measured values taken from patent publication US8119695B2, “Compounds and methods for treating breast cancer and other diseases” (City of Hope, priority 2003, dated 2012).
Several values for one entry are separate records, joined by “and”; a condition that tells them apart may be missing. Identical values can stand only once.

Legend:
Type in all cases: cell-based
MH100x4 = MH100x4 luciferase reporter without receptor; conditions: Table 2, dose 5 (unit not given); for Reporter Activity: None 0.49; for Fold Activation: None 1.00
Text: (§1) MH100x4 is a luciferase reporter with four copies of a GAL4 […] response element. GAL-L refers to the ligand-binding domain of the indicated receptor fused to the C-terminus of the GAL4 DNA binding domain.

ERRβ (GAL-L-ERRb) = target: T1, ERRβ (GAL-L-ERRb) (Homo sapiens, UniProt O95718); experiment: MH100x4 luciferase reporter with GAL-L-ERRb; design: Reporter Activity: unit not given here
T1 construct: expressed in transfected cells
T1 sequence (O95718 208-432 limits assumed): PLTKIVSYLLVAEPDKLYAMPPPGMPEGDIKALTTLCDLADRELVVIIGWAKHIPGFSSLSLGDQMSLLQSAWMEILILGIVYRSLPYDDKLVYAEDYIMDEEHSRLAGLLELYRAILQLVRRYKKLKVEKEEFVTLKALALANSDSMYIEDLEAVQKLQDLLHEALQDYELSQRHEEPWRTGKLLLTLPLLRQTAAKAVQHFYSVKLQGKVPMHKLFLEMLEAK
Text: as §1

ERRα (GAL-ERRa) = experiment: MH100x4 luciferase reporter with GAL-ERRa; design: Reporter Activity: unit not given here
Text: as §1

ERRγ (GAL-ERRg) = experiment: MH100x4 luciferase reporter with GAL-ERRg; design: Reporter Activity: unit not given here
Text: as §1

ERE-TK-luc = ERE-TK-luc reporter without receptor, E2 100 nM
[1] = Table 2, dose 5 (unit not given), None 1.00
[2] = Table 2, dose 5 (unit not given), None 1.44
[3] = Table 2, dose 5 (unit not given), None 8.54
[4] = Table 2, dose 5 (unit not given), None 1.25
[5] = Table 3, dose 2.5 (unit not given), None 1

Compound | Reporter Activity (MH100x4) | Fold Activation (MH100x4) | Fold Activation (ERRβ (GAL-L-ERRb); [1]) | Reporter Activity (ERRβ (GAL-L-ERRb); [2]) | Fold Activation (ERRα (GAL-ERRa); [1]) | Reporter Activity (ERRα (GAL-ERRa); [3]) | Fold Activation (ERRγ (GAL-ERRg); [1]) | Reporter Activity (ERRγ (GAL-ERRg); [4]) | Fold Activation (ERRβ (GAL-L-ERRb); [5]) | Reporter Activity (ERRβ (GAL-L-ERRb); Table 3, dose 2.5 (unit not given), None 2.38) | Fold Activation (ERRα (GAL-ERRa); [5]) | Reporter Activity (ERRα (GAL-ERRa); Table 3, dose 2.5 (unit not given), None 8.18) | Fold Activation (ERRγ (GAL-ERRg); [5]) | Reporter Activity (ERRγ (GAL-ERRg); Table 3, dose 2.5 (unit not given), None 2.2) | Reporter Activity (ERE-TK-luc)
CCC(=C(CC)c1ccc(O)c(C(C)C)c1)c1ccc(O)cc1 [DY17] | 0.39 | 0.80 | 0.53 | 0.76 | 0.61 | 5.18 | 0.73 | 0.91 |  |  |  |  |  |  | 
CCC(=C(CC)c1ccc(O)c(C(C)(C)C)c1)c1ccc(O)cc1 [DY18] | 0.26 | 0.53 | 0.42 | 0.6 | 0.40 | 3.39 | 0.58 | 0.73 |  |  |  |  |  |  | 
CCCCCCCCCCCCOc1ccc(/C(CC)=C(\CC)c2ccc(O)cc2)cc1 [DY14] |  |  | 0.96 | 1.38 | 1.01 | 8.63 | 1.10 | 1.38 |  |  |  |  |  |  | 
CCC(=C(c1ccc(OC2CCCCO2)cc1)c1ccc(OC2CCCCO2)cc1)c1ccccc1 (centres unmarked) [DY26] |  |  |  |  |  |  |  |  | 1.01 | 2.4 | 1.15 | 9.38 | 0.99 | 2.17 | 
CCC(=C(CC)c1ccc(Oc2cccc(C=O)c2)cc1)c1ccc(O)cc1 [DY19] | 0.37 | 0.76 | 0.58 | 0.84 | 0.62 | 5.27 | 0.82 | 1.02 |  |  |  |  |  |  | 
C=CCc1cc(C(CC)=C(CC)c2ccc(O)c(CC=C)c2)ccc1O [DY22] | 0.28 | 0.57 | 0.44 | 0.64 | 0.39 | 3.35 | 0.50 | 0.63 |  |  |  |  |  |  | 
CC/C(=C(\c1ccc(O)cc1)c1ccc(OCCN(C)C)cc1)c1ccccc1 [4-OH Tamoxifen, (Z)-4-hydroxytamoxifen, reference compound] |  |  |  |  |  |  |  |  |  |  |  |  |  |  | 1.2 and 0.98 and 1.58 and 1.48 and 1.61 and 1.34
CCCCCCCCCCCCOc1ccc(C(CC)=C(CC)c2ccc(OCCCCCCCCCCCC)cc2)cc1 [DY15] | 0.4 | 0.82 | 0.69 | 1 | 0.83 | 7.06 | 0.89 | 1.11 |  |  |  |  |  |  | 
